Where two headings read alike, the source gives them in different places. No end group written: not given here.

The values below come from patent US20110294721A1, “ANTIMICROBIAL PEPTIDES” (priority 2008, published 2011).

Data set [1] deals with Pseudomonas syringae pv. syringae. In words: MIC and lethal concentration (LC) assay (Example 3). The following applies: Table 2; for LC (lethal concentration): 100% inhibition after at least 4 days of incubation; for MIC: >90% inhibition, 1-2 days at 25° C. The data set is classed as cell-based. The procedure:
(§1) In-vitro inhibition assays were performed in sterile flat-bottom 96-well plates (Greiner bio-one, Frickenhausen). Antimicrobial peptides were dissolved in 0.01% acetic acid containing 0.2% BSA (500 μg/ml), filter sterilized and stored at −20° C. For inhibition assays dilutions of peptides ranging from 5 to 200 μg/ml were prepared and 10 μl (antibacterial assay) or 20 μl (antifungal assay) of each concentration was loaded per well.
(§2) Bacteria colonies from overnight agar plate cultures were resuspended into 5 ml LB-medium or HPG-medium (OD600 nm=0.08-0.1) and diluted into LB-medium/HPG-medium (1:100). 90 μl of this suspension containing about 10^5-10^6 CFU/ml of tested bacteria were added to each well resulting in final peptide concentrations of 0, 0.5, 1, 2, 5, 10, and 20 μg/ml. […] The lowest concentration, in which there is no observable growth (>90% inhibition) is referred to as minimal inhibitory concentration (MIC). […] For each peptide concentration two identical inhibition assays were performed.

In data set [2] the test system is Pectobacterium carotovorum. The data set is described as above. The data set is classed as cell-based. The following applies: Table 2; for LC (lethal concentration): 100% inhibition after at least 4 days of incubation; for MIC: >90% inhibition, 1-2 days at 25° C. The procedure:
as §1, §2

Data set [3] deals with Xanthomonas vesicatoria. Described as above. The data set is classed as cell-based. Particulars: Table 2; for LC (lethal concentration): 100% inhibition after at least 4 days of incubation; for MIC: >90% inhibition, 1-2 days at 25° C. The procedure: as §1, §2
The test system of data set [4] is Clavibacter michiganensis. Described as above. The data set is classed as cell-based. Particulars: Table 2; for LC (lethal concentration): 100% inhibition after at least 4 days of incubation; for MIC: >90% inhibition, 1-2 days at 25° C. The procedure: as §1, §2
Data set [5] concerns Pseudomonas syringae pv. tomato. The data set is described as above. The data set is classed as cell-based. Particulars: Table 2; for LC (lethal concentration): 100% inhibition after at least 4 days of incubation; for MIC: >90% inhibition, 1-2 days at 25° C. How it is done:
as §1, §2

Data set [6] has as its system Pseudomonas corrugata. The following applies: Table 2; for LC (lethal concentration): 100% inhibition after at least 4 days of incubation; for MIC: >90% inhibition, 1-2 days at 25° C. How it is done:
as §1, §2

For data set [7], the system named is HeLa cells (LC5-RIC). The data set is classed as cell-based, human. How it is done:
(§3) Antimicrobial oligopeptides were dissolved in 0.01% acetic acid containing 0.2% BSA (500 μg/ml), filter sterilized and stored at −20° C. […] (in 5% CO2). Afterwards, virus particles were added to the pre-treated HeLa cells and the infection was quantified by measuring red fluorescence with a fluorescence microplate reader after 72 h incubation. The viability of the HeLa cells was determined by measuring the activity of the mitochondrial dehydrogenase according to Lindl and Bauer (1994) and Mosmann (1983).

Data set [8] has as its system human immundeficiency virus (HIV). The data set is classed as cell-based. Particulars: HeLa cells pre-treated 30 min at 37° C.; red fluorescence after 72 h; read-out: IC50, concentration where the infection is decreased by 50% (compared to non-treated controls). How it is done: Cells were pretreated with 6.3 μg/ml SP13-3 and SP13-14 or buffer for 30 min at 37° C. before addition of virus particles. […] Shown is an overlay of pictures taken under transmitted light and fluorescence after 72 hours incubation. The viability of the HeLa cells was determined by measuring the activity of the mitochondrial dehydrogenase.
To measure the activity of the designed oligopeptides against human immundeficiency virus (HIV) a fluorescence-based reporter system was used. HeLa cells (LC5-RIC) harbour a reporter gene, which regulates in dependency of HIV Rev and Tat proteins the synthesis of a red fluorescing protein. In this way the infection of the HeLa cells (LC5-RIC) is indicated and the infection rate can be quantified using a fluorescence microplate reader.
as §3

For data set [9], the system named is Pseudomonas syringae pv. syringae.
Data set [10] concerns Pseudomonas syringae pv. tomato.
Data set [11] has as its system Pseudomonas corrugata.
Data set [12] relates to Xanthomonas vesicatoria.
The test system of data set [13] is Cladosporium herbarum. As to the kind of experiment: MIC in-vitro inhibition assay, antifungal (Example 2). The data set is classed as cell-based. Particulars: complete inhibition of spore germination/mycelial growth; Table 1. How it is done:
as §1
(§4) Spores of fungi were collected by water washes of sporulating cultures grown on 2% malt extract agar and spore concentration was determined by microscopy. The concentration of the spores was adjusted to 1.5-2×10^3 spores/ml in 2% malt extract medium and 80 μl of fungal spores were added per well. The final peptide concentrations used in the fungal inhibition assays were 0, 2, 4, 10, 20, 40, and 100 μg/ml. After overnight incubation at room temperature the plate were put on a rotary shaker (300 rpm) for further two days to ensure consistantly growth. Antifungal effects of the peptides were determined by a microplate reader (Altemaria, Fusarium) at OD590 nm or by visual screening of the plates (Bottytis, Cladosporium).
(§5) The lowest peptide concentration leading to complete inhibition of bacterial growth or spore germination/mycelial growth (minimal inhibition concentration, MIC) was determined for each organism-peptide combination. For each peptide concentration two identical inhibition assays were performed.

Data set [14] has as its system Botrytis cinerea. The description is as above. The data set is classed as cell-based. Particulars: complete inhibition of spore germination/mycelial growth; Table 1. How it is done:
as §1, §4, §5

Data set [15] deals with Alternaria alternata. The description is as above. The data set is classed as cell-based. The following applies: complete inhibition of spore germination/mycelial growth; Table 1. How it is done:
as §1, §4, §5

The subject of data set [16] is Clavibacter michiganensis sub. michiganensis. Particulars: complete inhibition of bacterial growth; overnight 25° C.; Table 1.
The subject of data set [17] is Pectobacterium carotovorum sub. carotovorum.
Data set [18] relates to Xylella fastidiosa. The following applies: reported by Kuzina et al (2006); cited from earlier work.
Setting [19] is: complete inhibition of bacterial growth, overnight 25° C., Table 1.

For the substance KRRLILRILRLAIRILVKKR-NH2 [SP13-3], the “LC (lethal concentration)” value is >10/>10 μg/ml in data set [1]; >10/>10 μg/ml in data set [2]; 10 µg/mL in data set [3]; 10 µg/mL in data set [4]; 10/10 μg/ml in data set [5]; >10/>10 μg/ml in [6]. Besides, the MIC (in general, the least concentration at which growth counts as inhibited) was >10/>10 μg/ml in data set [1]; >10/>10 μg/ml in data set [2]; 2.5 µg/mL in data set [3]; 2.5 µg/mL in [4]; 10/10 μg/ml in [5]; >10/>10 μg/ml in data set [6]. Also, in [7], the “negative/toxic effect on test cells (HeLa cells)” value (shortened to “negative/toxic effect”) was “No negative/toxic effect”. In addition, in [8], the IC50 was 2.1 µM.

In the case of “KRRLIARILRLAARALVKKR (also: D-amino acids at unstated positions) [SP13-D]”, the “Minimal inhibition concentration (MIC)” value in data set [9] (setting [19]) was 2.5 µg/mL; in data set [10] (setting [19]), 1 µg/mL; in data set [11] (setting [19]), 40 µg/mL; in data set [12] (setting [19]), 2 µg/mL; in data set [13], 5 µg/mL; in [14], more than 40 µg/mL. In addition, the figures for the “Minimal inhibition concentration (MIC)” value in [15], in data set [16] and in data set [17] (setting [19]) were 20 µg/mL, 10 µg/mL and more than 40 µg/mL, respectively.

KRRKLAFRLFRLFLKLVLKK-NH2 [SP13-14]: the “LC (lethal concentration)” value in [1] was 10 µg/mL; in data set [2], >10/>10 μg/ml; in data set [3], 2.5 µg/mL; in [4], 2 to 5 µg/mL; in [5], 5.0 µg/mL; in data set [6] it was more than 10 µg/mL. Further, the minimal inhibitory concentration (MIC) in data set [1] is 5.0 µg/mL; in [2], >10/>10 μg/ml; in data set [3] it was 0.25 µg/mL; in [4], 0.5 µg/mL; in data set [5], 2.5 µg/mL; in [6] it was 2.5 µg/mL. For the same substance, the “negative/toxic effect” value in data set [7] is listed as “No negative/toxic effect”. Also, the IC50 in data set [8] stood at 1.2 µM.

As for KRRLALFRLFRLALKLVLKK-NH2 [SP13-11], the “LC (lethal concentration)” value was >10/>10 μg/ml in data set [1]; >10/>10 μg/ml in data set [2]; 5.0 µg/mL in data set [3]; 2.5/2.5 μg/ml in data set [4]; 5.0 µg/mL in [5]; >10/>10 μg/ml in data set [6]. The minimum inhibitory concentration (MIC) in data set [1] was >10/>10 μg/ml; in data set [2] it was >10/>10 μg/ml; in data set [3], 2.5 µg/mL; in data set [4], 2.5/2.5 μg/ml; in [5] it was 2.5 µg/mL; in [6], >10/>10 μg/ml. Moreover, the “negative/toxic effect” value in data set [7] was “No negative/toxic effect”. Also, the IC50 in data set [8] stood at 2.1 µM.

Regarding Magainin-2, the “activity against Xylella fastidiosa” value in data set [18] is “active”.

KRRLIARILRLAARALVKKR-NH2 [SP13]: the “Minimal inhibition concentration (MIC)” value in data set [9] was 10 µg/mL; in data set [10] it was 20 µg/mL; in data set [11] it was 2.5 µg/mL; in data set [12], 2.5 µg/mL; in [13] it was 20 µg/mL; in [14] it was more than 100 µg/mL. Further, the “Minimal inhibition concentration (MIC)” value in data set [15] was more than 100 µg/mL; in data set [16] it was 2.5 µg/mL; in [17], more than 40 µg/mL. In addition, the “LC (lethal concentration)” value in data set [1] is 0.5/0.5 μg/ml; in data set [2], 10/>10 μg/ml; in [3] it was 0.5 µg/mL; in [4], 1.0 µg/mL; in [5], 5.0/5.0 μg/ml; in [6], 1.0 µg/mL. Moreover, the MIC in [1] is 0.5/0.5 μg/ml; in data set [2] it was 10/>10 μg/ml; in data set [3], 0.1 µg/mL; in data set [4], 0.25 µg/mL; in data set [5], 5.0/5.0 μg/ml; in [6], 0.25 µg/mL.
